Laboratory results as given in patent publication US8362017B2, “C-kit modulators and methods of use” (Exelixis, Inc., priority 2003, dated 2013).

What follows are compounds tested against c-Kit kinase (Homo sapiens, UniProt P10721) (assay: c-Kit biochemical activity assay (AlphaScreen)). Settings: biotinylated poly(Glu, Tyr) substrate, 1 hr at ambient temperature.
Method: Kinase activity and compound inhibition are investigated using one or more of the three assay formats described below. The ATP concentrations for each assay are selected to be close to the Michaelis-Menten constant (KM) for each individual kinase. Dose-response experiments are performed at 10 different inhibitor concentrations in a 384-well plate format. The data are fitted to four-parameter equation (2) below; where Y is the observed signal, X is the inhibitor concentration, Min is the background signal in the absence of enzyme (0% enzyme activity), Max is the signal in the absence of inhibitor (100% enzyme activity), IC50 is the inhibitor concentration at 50% enzyme inhibition and H represents the empirical Hill's slope to measure the cooperativity. Typically H is close to unity. Y=Min+(Max−Min)/(1+(X/IC50)^H) Equation (2) c-Kit Assay
c-Kit biochemical activity was assessed using AlphaScreen™ (Perldn Elmer) technology, described above. Test compounds, ATP, biotinylated poly(Glu, Tyr) and c-Kit kinase were combined in a volume of 20 μL in a 384-well white, medium binding microtiter plate (Greiner). Reaction mixtures were incubated for 1 hr at ambient temperature. Reactions were quenched by addition of 10 μL of 15-30 mg/mL AlphaScreen bead suspension containing 75 mM Hepes, pH 7.4, 300 mM NaCl, 120 mM EDTA, 0.3% BSA and 0.03% Tween-20. After 16 hr incubation at ambient temperature plates were read using an AlphaQuest reader (Perkin Elmer).

Sequence of c-Kit kinase (P10721 26-976): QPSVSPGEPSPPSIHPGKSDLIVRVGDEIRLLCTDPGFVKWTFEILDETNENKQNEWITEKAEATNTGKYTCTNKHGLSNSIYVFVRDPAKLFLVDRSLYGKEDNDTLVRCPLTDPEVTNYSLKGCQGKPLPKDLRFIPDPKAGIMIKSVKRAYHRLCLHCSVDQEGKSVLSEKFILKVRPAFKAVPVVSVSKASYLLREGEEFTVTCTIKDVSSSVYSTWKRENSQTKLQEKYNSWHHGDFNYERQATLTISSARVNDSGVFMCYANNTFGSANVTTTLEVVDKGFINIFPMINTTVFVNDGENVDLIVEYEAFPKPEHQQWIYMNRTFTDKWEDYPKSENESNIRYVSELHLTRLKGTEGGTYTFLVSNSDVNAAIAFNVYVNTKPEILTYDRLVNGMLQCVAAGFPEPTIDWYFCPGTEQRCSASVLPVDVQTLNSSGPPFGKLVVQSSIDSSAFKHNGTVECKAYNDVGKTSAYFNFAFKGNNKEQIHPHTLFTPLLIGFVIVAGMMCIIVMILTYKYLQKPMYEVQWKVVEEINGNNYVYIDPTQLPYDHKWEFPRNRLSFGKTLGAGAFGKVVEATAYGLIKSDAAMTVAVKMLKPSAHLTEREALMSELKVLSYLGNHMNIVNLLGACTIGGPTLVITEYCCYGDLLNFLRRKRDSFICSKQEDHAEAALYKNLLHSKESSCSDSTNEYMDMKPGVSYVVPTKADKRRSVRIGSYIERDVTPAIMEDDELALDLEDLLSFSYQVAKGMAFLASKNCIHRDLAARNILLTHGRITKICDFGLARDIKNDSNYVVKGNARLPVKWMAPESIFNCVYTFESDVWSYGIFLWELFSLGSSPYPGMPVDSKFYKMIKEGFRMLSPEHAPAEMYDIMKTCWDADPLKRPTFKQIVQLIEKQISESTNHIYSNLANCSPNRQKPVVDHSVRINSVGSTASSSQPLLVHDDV

| Compound | IC50 [µM] |
| --- | --- |
| O=C(Nc1ccc(Cl)c(C(F)(F)F)c1)OCc1cccc(-c2cccnc2)n1 [Example 261, 2,3′-bipyridin-6-ylmethyl [4-chloro-3-(trifluoromethyl)phenyl]carbamate] | 0.5 to 5 |
| O=C(Nc1ccc(Cl)c(C(F)(F)F)c1)OCc1cccc(-c2cncnc2)n1 [Example 262, (6-pyrimidin-5-ylpyridin-2-yl)methyl [4-chloro-3-(trifluoromethyl)phenyl]carbamate] | 0.5 to 5 |
| O=C(NCc1cccc(-c2cncc3ccccc23)c1)Nc1ccc(Cl)c(C(F)(F)F)c1 [Example 263, N-[4-chloro-3-(trifluoromethyl)phenyl]-N′-[(3-isoquinolin-4-ylphenyl)methyl]urea] | 0.5 to 5 |
| O=C(NCc1ccc(-c2cncc3ccccc23)cc1)Nc1ccc(Cl)c(C(F)(F)F)c1 [Example 264, N-[4-chloro-3-(trifluoromethyl)phenyl]-N′-[(4-isoquinolin-4-ylphenyl)methyl]urea] | 0.5 to 5 |
| O=C(Nc1cc(C(F)(F)F)ccn1)OCc1cccc(-n2cnnn2)n1 [Example 265, [6-(1H-tetrazol-1-yl)pyridin-2-yl]methyl [4-(trifluoromethyl)pyridin-2-yl]carbamate] | 0.05 to 0.5 |
| O=C(Nc1ccc(Cl)c(C(F)(F)F)c1)OCc1cccc(-c2cn[nH]c2)c1 [Example 266, [3-(1H-pyrazol-4-yl)phenyl]methyl [4-chloro-3-(trifluoromethyl)phenyl]carbamate] | < 0.05 |
| O=C(Nc1ccc(Cl)c(C(F)(F)F)c1)OCc1ccc(-c2cn[nH]c2)cc1 [Example 267, [4-(1H-pyrazol-4-yl)phenyl]methyl [4-chloro-3-(trifluoromethyl)phenyl]carbamate] | 0.5 to 5 |
